# Results as given in PubChem BioAssay (NCI).
#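 Test compounds were applied to cells in 96-well plates for 48 hours at 5 doses. The concentration for 50% growth inhibition is given as GI50. TGI marks complete inhibition of growth.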
# Tests used:
# Test in all cases: NCI-60 cell line screen, 48 h
# [1] = tested on: SNB-75 CNS
# [2] = tested on: K-562 leukemia
# [3] = tested on: U251 CNS
# [4] = tested on: OVCAR-5 ovarian
# [5] = tested on: A498 renal
# [6] = tested on: SN12C renal
# [7] = tested on: SR leukemia
# [8] = tested on: HCC-2998 colon
# [9] = tested on: NCI-H460 lung
# [10] = tested on: MDA-MB-231 breast
SMILES,TGI [1] [µM],TGI [2] [µM],TGI [3] [µM],TGI [4] [µM],TGI [5] [µM],TGI [6] [µM],TGI [7] [µM],TGI [8] [µM],TGI [9] [µM],GI50 [1] [µM],GI50 [10] [µM],TGI [10] [µM],GI50 [4] [µM],GI50 [5] [µM],GI50 [6] [µM],GI50 [8] [µM],GI50 [9] [µM],GI50 [2] [µM],GI50 [3] [µM]
c1cc2c(cnc3cscc32)s1,> 100,> 100,> 100,> 100,> 100,> 100,> 100,> 100,> 100,,,,,,,,,,
COc1cccc2c(=O)c3c(sc12)c(NCCCN)nc1ccccc13,3.2,,,3.01,3.15,2.85,,3.26,2.23,1.64,1.29,2.67,1.65,1.68,1.45,1.72,0.745,,
ClCCn1cnc2c(SCc3ccccc3)ncnc21,> 100,> 100,> 100,> 100,74.6,> 100,,,30.1,0.777,30,> 100,> 100,3.23,8.54,,0.356,0.64,0.623
CCOC(OC1=C(C#N)CCC1)C(CC)[Se]c1ccccc1 (stereo not drawn),64.2,> 100,23.9,54.8,> 100,32.3,31.1,83.8,> 100,,,,,,,,,,
CC(C)(C)C([O-])=C1C(=O)c2ccccc2C1=O.CC(C)(C)C([O-])=C1C(=O)c2ccccc2C1=O.CC[O-].CC[O-].[Ti+4],> 100,> 100,> 100,> 100,,> 100,,> 100,> 100,42.3,,,34.8,,37.7,40.3,32.1,44.9,41.6
CCc1cccc(C)c1NC(=O)CC1Sc2ccccc2NC1=O (stereo not drawn),75,> 100,> 100,> 100,72.8,> 100,,81.2,> 100,,,,,,,,,,
Cc1c2ncccc2c(C)c2c1[nH]c1ccccc12,22.6,41.7,24.7,27.1,25.2,26,,25.7,28.7,,,,,,,,,,
CC(=O)O/C(C)=C\C(=O)O/N=C(\N)c1ccc(C)cc1,61,52.1,40.5,> 100,> 100,57.4,> 100,> 100,> 100,,,,,,,,,,
C=CCN(N=O)C(=O)N(CCC)CCCC(NC(C)=O)C(=O)NCc1ccccc1 (stereo not drawn),> 100,> 100,> 100,> 100,> 100,> 100,,,> 100,,,,,,,,,,
O=C(/C=C/c1ccc([N+](=O)[O-])o1)NNC(=O)c1cc2ccccc2cc1O,> 100,> 100,> 26.1,> 100,6.17,> 100,,3.21,> 100,1.72,2.43,> 100,13,2.11,1.49,1.32,2.82,1.41,2.17
Cc1cc(O)cc(C)c1/C=C/c1cncc(C(=O)N(C)C)c1,> 25,> 25,> 25,> 25,> 25,> 25,,> 25,> 25,> 13.7,> 25,> 25,> 25,> 25,> 25,> 25,> 25,> 25,> 25
Cc1ccc(C)c(NC(=O)/C(=N\NC(N)=S)C(C#N)c2ccccc2)c1 (stereo not drawn),> 100,> 100,> 100,> 100,> 100,> 100,> 100,> 100,> 100,,,,,,,,,,
COc1cc2ccc3c4cc(OC)c(OCc5ccccc5)cc4cnc3c2cc1OC,> 100,> 100,> 100,> 100,> 100,> 100,,> 100,> 100,,,,,,,,,,
CCCCCCCCCCCCC(SCCNC(=O)CCNC(=O)C(O)C(C)(C)COP(=O)(O)OP(=O)(O)OCC1OC(n2cnc3c(N)ncnc32)C(O)C1OP(=O)(O)O)C(=O)NCC(N)=O (stereo not drawn),9.04,,> 100,> 100,> 100,> 100,,> 100,> 100,,,,,,,,,,
Cc1ccc(S(=O)(=O)ON/N=C2/C3OC3[C@@H]3CCCC[C@H]23)cc1 (stereo partly drawn),> 100,> 100,> 100,,,> 100,> 100,> 100,> 100,,,,,,,,,,
Cc1c(C(=O)CC(=O)C(=O)NC2C3CC4CC(C3)CC2C4)[n+](=O)c2ccccc2n1[O-] (stereo not drawn),> 100,> 100,> 100,> 100,> 100,> 100,> 100,> 100,> 100,,,,,,,,,,
c1ccc(COc2ccc3[nH]c4c(ncc5[nH]c6ccccc6c54)c3c2)cc1,25.5,6.11,24.4,33.6,41.6,29.7,30.3,23.6,37,,,,,,,,,,
O=C(N=Nc1c(O)[nH]c2ccccc12)c1ccccc1O,94.2,> 100,72.2,> 100,94.6,> 100,,> 100,> 100,,,,,,,,,,
COc1ccc2c(C3(O)CCNCC3)c[nH]c2c1,> 100,> 100,> 100,> 100,,> 100,,> 100,> 100,,,,,,,,,,
O=c1oc2c3ccc4ccccc4c3n(Cc3nc4ccccc4[nH]3)c2c2ccccc12,> 87.7,> 100,> 100,> 100,> 100,> 100,> 100,> 100,> 100,,,,,,,,,,
c1c[nH]c(Cc2ncc(Cc3cnc[nH]3)[nH]2)n1,> 100,> 100,> 100,59.6,86,> 100,,> 100,96.2,,,,,,,,,,
CC(C)(C)N=CN1CCC(C(c2ccccc2)c2ccccc2)CC1,> 100,> 100,> 100,> 100,> 100,> 100,,,> 100,,,,,,,,,,
